What was measured:
RET = target: T1, RET (Homo sapiens, UniProt P07949); assay: KINOMEscan active-site competitive binding assay; conditions: slash = two separate measurements
T1 construct: purchased DiscoveRx

BRAF^V600E = BRAF^V600E (Homo sapiens, UniProt P15056, V600E); assay: KINOMEscan active-site competitive binding assay
FLT3^R834Q = target: T2, FLT3^R834Q (Homo sapiens, UniProt P36888, R834Q); assay: KINOMEscan active-site competitive binding assay
T2 construct: purchased DiscoveRx

KIT^A829P = target: T3, KIT^A829P (Homo sapiens, UniProt P10721, A829P); assay: KINOMEscan active-site competitive binding assay
T3 construct: purchased DiscoveRx
T3 sequence (P10721 26-976 A829P): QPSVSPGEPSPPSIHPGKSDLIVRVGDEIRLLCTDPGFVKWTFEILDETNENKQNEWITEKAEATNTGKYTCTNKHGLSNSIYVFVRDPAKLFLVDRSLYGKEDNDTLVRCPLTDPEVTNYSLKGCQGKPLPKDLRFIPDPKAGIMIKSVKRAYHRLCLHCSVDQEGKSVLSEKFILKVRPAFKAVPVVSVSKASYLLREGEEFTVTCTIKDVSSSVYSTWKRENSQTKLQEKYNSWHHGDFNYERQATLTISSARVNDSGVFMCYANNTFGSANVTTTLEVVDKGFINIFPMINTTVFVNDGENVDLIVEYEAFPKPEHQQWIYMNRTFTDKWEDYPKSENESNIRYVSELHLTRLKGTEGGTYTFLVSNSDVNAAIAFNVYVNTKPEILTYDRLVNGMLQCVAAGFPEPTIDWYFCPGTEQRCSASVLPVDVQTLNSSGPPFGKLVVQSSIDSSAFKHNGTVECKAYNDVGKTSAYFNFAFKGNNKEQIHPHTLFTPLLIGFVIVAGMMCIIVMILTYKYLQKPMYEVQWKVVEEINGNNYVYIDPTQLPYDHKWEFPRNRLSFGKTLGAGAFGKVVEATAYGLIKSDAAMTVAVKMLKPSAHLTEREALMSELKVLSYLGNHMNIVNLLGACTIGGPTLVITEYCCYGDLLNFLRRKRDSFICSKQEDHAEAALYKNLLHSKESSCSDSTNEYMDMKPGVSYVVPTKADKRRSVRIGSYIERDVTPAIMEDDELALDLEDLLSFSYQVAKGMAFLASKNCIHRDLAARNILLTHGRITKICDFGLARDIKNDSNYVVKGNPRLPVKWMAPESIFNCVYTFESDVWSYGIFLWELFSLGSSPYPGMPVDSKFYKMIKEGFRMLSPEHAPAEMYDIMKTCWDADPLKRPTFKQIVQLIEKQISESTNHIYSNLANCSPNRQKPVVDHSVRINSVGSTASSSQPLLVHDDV

KIT^D816H = target: T4, KIT^D816H (Homo sapiens, UniProt P10721, D816H); assay: KINOMEscan active-site competitive binding assay
T4 construct: purchased DiscoveRx
T4 sequence (P10721 26-976 D816H): as the sequence (P10721 26-976 A829P) above, with D791H, P804A counted along it

KIT^V559D,V654A = target: T5, KIT^V559D,V654A (Homo sapiens, UniProt P10721, V559D/V654A); assay: KINOMEscan active-site competitive binding assay
T5 construct: purchased DiscoveRx (KINOMEscan service)
T5 sequence (P10721 26-976 V559D/V654A): as the sequence (P10721 26-976 A829P) above, with V534D, V629A, P804A counted along it

RET^V804L = target: T6, RET^V804L (Homo sapiens, UniProt P07949, V804L); assay: KINOMEscan active-site competitive binding assay
T6 construct: purchased DiscoveRx (KINOMEscan service)
T6 sequence (P07949 29-1114 V804L): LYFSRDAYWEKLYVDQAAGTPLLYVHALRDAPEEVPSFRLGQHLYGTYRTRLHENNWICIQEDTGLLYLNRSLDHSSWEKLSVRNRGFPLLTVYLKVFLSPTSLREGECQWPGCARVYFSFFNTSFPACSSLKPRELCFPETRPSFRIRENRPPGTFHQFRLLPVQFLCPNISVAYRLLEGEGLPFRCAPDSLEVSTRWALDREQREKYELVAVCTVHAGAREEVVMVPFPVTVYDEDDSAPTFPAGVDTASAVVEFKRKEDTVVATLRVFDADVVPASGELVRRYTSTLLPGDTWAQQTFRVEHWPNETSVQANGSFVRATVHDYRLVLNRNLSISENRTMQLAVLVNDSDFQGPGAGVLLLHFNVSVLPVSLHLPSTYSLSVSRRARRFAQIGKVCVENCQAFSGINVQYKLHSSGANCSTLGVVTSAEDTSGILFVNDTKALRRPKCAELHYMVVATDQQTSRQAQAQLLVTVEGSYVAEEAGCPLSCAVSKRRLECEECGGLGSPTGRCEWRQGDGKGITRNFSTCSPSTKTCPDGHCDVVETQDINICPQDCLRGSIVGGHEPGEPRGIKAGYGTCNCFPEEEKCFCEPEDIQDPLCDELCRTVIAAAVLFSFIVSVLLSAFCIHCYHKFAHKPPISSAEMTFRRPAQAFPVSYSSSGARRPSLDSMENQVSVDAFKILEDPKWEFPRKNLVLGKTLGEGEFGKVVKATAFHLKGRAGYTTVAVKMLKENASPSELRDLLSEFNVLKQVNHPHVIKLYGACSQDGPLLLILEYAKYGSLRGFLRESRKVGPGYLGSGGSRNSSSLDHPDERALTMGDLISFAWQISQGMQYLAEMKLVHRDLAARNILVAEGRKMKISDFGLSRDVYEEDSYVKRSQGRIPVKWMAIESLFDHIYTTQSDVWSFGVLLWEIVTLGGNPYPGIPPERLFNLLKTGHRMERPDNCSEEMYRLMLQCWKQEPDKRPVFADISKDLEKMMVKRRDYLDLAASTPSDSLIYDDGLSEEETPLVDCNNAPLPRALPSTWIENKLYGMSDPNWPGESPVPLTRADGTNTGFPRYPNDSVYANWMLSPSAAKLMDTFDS

FGFRs = assay: KINOMEscan active-site competitive binding assay; conditions: range among family members, data not shown
FGFR2 = target: T7, FGFR2 (Homo sapiens, UniProt P21802); assay: FGFR phosphorylation assay in SNU‐16 cells (western blot); format: cell-based; conditions: SNU‐16/FGFR2 cells, 0.1% bovine serum albumin, read-out: Mean ± SD IC50
T7 construct: FGFR2, but not FGFR1, is overexpressed in the SNU‐16 cell line; endogenous in cells
T7 sequence (P21802 22-822 isoform P21802-3 limits assumed): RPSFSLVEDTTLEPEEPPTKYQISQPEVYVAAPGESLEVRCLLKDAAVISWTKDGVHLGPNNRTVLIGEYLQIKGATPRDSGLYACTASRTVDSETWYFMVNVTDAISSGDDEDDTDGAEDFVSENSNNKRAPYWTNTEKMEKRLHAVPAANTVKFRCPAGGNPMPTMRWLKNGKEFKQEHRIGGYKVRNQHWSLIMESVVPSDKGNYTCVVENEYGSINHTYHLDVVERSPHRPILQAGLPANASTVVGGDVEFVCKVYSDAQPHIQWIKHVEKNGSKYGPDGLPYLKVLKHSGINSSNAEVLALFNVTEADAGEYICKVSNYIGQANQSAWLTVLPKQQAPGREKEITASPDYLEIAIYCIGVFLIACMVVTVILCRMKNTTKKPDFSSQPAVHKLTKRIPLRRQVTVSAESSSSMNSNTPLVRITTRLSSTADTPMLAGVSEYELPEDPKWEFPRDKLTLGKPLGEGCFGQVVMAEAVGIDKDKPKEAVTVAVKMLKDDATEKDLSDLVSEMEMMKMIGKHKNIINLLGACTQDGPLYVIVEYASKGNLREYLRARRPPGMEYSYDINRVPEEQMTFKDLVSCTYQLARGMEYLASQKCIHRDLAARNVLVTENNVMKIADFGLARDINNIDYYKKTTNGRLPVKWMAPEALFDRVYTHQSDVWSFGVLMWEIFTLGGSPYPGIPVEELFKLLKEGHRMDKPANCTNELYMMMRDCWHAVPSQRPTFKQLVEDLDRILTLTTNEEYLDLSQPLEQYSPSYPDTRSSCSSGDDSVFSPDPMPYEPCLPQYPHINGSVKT
Experimental: VEGFR2 assays were performed in murine fibroblasts (NIH‐3T3) in the presence of 0.1 mg/mL human serum albumin. […] Substrate phosphorylation was determined from total cell lysates by enzyme‐linked immunosorbent assay. In addition, an FGFR phosphorylation assay was performed using a human gastric carcinoma cell line (SNU‐16), with pFGFR assessed by western blot. The PDGFRA phosphorylation assay was performed by DiscoverRx using the DiscoverRx PathHunter cell line, modified to express PDGFRA. […] The assay signal was generated using a detection reagent cocktail and measured by chemoluminescence 13. Both the PDGFRA and FGFR assays were performed in the presence of 0.1 mg/mL BSA.

VEGFR3 = target: T8, VEGFR3 (Homo sapiens, UniProt P35916); assay: VEGFR3 autophosphorylation in HuLECs stimulated with VEGF‐C (western blot); format: cell-based; conditions: VEGF‐C stimulation, 0.1% bovine serum albumin, estimated from western blots, read-out: Mean ± SD IC50
T8 construct: VEGFR3 autophosphorylation in HuLECs; endogenous in cells; host or cells: HuLEC
Experimental: (§1) Endothelial cell assays were performed as described previously 14. In brief, HuVECs and HuLECs were grown in EBM‐2 supplemented with growth factors (Lonza, Walkersville, MD). After serum starvation for 6 h in EBM‐2 containing 0.1% BSA, 2 × 10^5 cells were treated with various concentrations of each compound for 1 h before stimulation with VEGF‐A (50 ng/mL) or VEGF‐C (200 ng/mL) for 10 min. Cells were lysed, and total cell lysates were analyzed for inhibition of phosphorylation by western blot, using antibodies against total and phosphorylated VEGFR2 and VEGFR3, ERK1/2, and AKT. Signals were detected by […] luminescence (GE Healthcare Biosciences; Pittsburgh, PA).

VEGFR2 [1] = target: T9, VEGFR2 (Homo sapiens, UniProt P35968); assay: VEGFR2 kinase phosphorylation assay in NIH‐3T3 cells; format: cell-based; conditions: 0.1 mg/mL human serum albumin, data not shown
T9 sequence (P35968 20-1356): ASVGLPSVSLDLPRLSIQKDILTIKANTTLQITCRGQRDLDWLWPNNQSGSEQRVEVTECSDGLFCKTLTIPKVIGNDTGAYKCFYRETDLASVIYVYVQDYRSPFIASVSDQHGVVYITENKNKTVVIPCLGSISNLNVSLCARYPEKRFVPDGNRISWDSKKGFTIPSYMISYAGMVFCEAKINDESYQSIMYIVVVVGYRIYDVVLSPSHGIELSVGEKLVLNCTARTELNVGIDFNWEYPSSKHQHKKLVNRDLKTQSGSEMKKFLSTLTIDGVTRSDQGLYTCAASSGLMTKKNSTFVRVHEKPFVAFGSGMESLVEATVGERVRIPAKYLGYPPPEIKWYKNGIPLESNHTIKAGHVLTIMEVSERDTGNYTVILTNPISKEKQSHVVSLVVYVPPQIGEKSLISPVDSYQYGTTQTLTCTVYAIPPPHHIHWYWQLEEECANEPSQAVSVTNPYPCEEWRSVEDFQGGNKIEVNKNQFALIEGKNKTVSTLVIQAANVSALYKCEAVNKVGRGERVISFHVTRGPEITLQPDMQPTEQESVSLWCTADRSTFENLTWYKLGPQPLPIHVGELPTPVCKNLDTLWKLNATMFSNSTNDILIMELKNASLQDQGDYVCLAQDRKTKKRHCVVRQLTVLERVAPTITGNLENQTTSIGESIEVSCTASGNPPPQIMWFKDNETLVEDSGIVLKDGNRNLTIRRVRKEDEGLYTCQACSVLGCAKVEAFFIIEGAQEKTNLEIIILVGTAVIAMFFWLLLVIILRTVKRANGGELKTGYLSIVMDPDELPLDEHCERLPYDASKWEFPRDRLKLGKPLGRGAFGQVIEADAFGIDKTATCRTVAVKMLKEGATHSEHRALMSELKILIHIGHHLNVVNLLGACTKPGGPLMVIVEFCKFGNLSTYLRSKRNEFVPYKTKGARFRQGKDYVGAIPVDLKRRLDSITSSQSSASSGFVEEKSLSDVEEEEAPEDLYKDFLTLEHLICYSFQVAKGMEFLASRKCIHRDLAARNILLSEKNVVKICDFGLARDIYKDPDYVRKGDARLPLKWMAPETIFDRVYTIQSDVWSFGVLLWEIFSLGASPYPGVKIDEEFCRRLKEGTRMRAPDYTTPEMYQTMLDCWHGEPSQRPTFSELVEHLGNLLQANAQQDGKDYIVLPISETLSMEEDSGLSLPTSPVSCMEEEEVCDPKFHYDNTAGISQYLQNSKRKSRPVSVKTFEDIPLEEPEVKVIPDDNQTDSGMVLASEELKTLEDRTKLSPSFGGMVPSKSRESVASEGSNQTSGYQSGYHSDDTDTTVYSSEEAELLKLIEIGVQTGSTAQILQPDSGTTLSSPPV
Experimental: TIE‐2, wt KIT, and BRAF^V600E assays were performed by ProQinase (Freiburg, Germany). Cell lines used were Chinese hamster ovary (TIE‐2 assay), human acute megakaryoblastic leukemia cell line (M07e; wt KIT assay), and rat fibroblasts (RAT‐1; BRAF^V600E assay). VEGFR2 assays were performed in murine fibroblasts (NIH‐3T3) in the presence of 0.1 mg/mL human serum albumin. KIT^K642E assays were performed in a GIST cell line (GIST882) in the presence of 0.1 mg/mL BSA. Substrate phosphorylation was determined from total cell lysates by enzyme‐linked immunosorbent assay. In addition, an FGFR phosphorylation assay was performed using a human gastric carcinoma cell line (SNU‐16), with pFGFR assessed by western blot. The PDGFRA phosphorylation assay was performed by DiscoverRx using the DiscoverRx PathHunter cell line, modified to express PDGFRA. […] The assay signal was generated using a detection reagent cocktail and measured by chemoluminescence 13. Both the PDGFRA and FGFR assays were performed in the presence of 0.1 mg/mL BSA.

[2] = Plasma pharmacokinetics in female NMRI Foxn1 nu/nu mice; conditions: for Calculated maximum free drug concentration: murine plasma
Experimental: Analyte concentrations were measured by high‐performance liquid chromatography using a Hewlett Packard 1100 Series system (Palo Alto, CA), with tandem mass spectrometric detection using an Applied Biosystems API 4000 (Thermo Fisher Scientific, Waltham, MA). The assay was validated according to the applicable guideline on method validation 11. The lower limit of quantitation for the assay was 2.00 μg/L, with a linear range of 2.00–20,000 μg/L using a sample volume of 100 μL.
Pharmacokinetic studies were performed in female NMRI Foxn1 nu/nu mice, supplied by Harlan‐Winkelmann GmbH (Borchen, Germany). […] Pharmacokinetic parameters, namely the AUC(0–24)ss and C max, were calculated from plasma concentrations using a noncompartmental analysis.

VEGFR2 [3] = target: T9, VEGFR2; assay: KINOMEscan active-site competitive binding assay; design: purchased DiscoveRx; conditions: slash = two separate measurements
VEGFR2 [4] = target: T9, VEGFR2; assay: VEGFR2 autophosphorylation in HuVECs stimulated with VEGF‐A (western blot); format: cell-based; design: VEGFR2 autophosphorylation in HuVECs; endogenous in cells; host or cells: HuVEC; conditions: VEGF‐A stimulation, 0.1% bovine serum albumin, estimated from western blots, read-out: Mean ± SD IC50
Experimental: as §1

KIT = KIT (Homo sapiens, UniProt P10721); assay: Cellular kinase phosphorylation assay, M07e/KIT; format: cell-based; design: human acute megakaryoblastic leukemia cell line (M07e; wt KIT assay); host or cells: M07e; conditions: M07e/KIT cells; without serum; read-out: Mean ± SD IC50
Sequence of KIT (P10721 26-976): as the sequence (P10721 26-976 A829P) above, with P804A counted along it

[5] = M‐2‐treated mice, 10 mg/kg/day oral for 5 days
[6] = after M‐2 10 mg/kg/day oral for 5 days, total = sum of molar concentrations of regorafenib, M‐2, M‐5
[7] = after regorafenib 10 mg/kg/day oral for 5 days, total = sum of molar concentrations of regorafenib, M‐2, M‐5
[8] = after the labelled (administered) compound, 10 mg/kg/day oral for 5 days
[9] = analyte in plasma after M‐2 10 mg/kg/day oral for 5 days
[10] = analyte in plasma after M‐2 10 mg/kg/day oral for 5 days, AUC(0–24)ss
[11] = analyte in plasma after regorafenib 10 mg/kg/day oral for 5 days
[12] = analyte in plasma after regorafenib 10 mg/kg/day oral for 5 days, AUC(0–24)ss
[13] = regorafenib‐treated mice, 10 mg/kg/day oral for 5 days
[14] = analyte in plasma after M‐5 10 mg/kg/day oral for 5 days

T1 sequence (P07949 29-1114): as the sequence (P07949 29-1114 V804L) above, with L776V counted along it
Sequence of BRAF^V600E (P15056 whole entry V600E): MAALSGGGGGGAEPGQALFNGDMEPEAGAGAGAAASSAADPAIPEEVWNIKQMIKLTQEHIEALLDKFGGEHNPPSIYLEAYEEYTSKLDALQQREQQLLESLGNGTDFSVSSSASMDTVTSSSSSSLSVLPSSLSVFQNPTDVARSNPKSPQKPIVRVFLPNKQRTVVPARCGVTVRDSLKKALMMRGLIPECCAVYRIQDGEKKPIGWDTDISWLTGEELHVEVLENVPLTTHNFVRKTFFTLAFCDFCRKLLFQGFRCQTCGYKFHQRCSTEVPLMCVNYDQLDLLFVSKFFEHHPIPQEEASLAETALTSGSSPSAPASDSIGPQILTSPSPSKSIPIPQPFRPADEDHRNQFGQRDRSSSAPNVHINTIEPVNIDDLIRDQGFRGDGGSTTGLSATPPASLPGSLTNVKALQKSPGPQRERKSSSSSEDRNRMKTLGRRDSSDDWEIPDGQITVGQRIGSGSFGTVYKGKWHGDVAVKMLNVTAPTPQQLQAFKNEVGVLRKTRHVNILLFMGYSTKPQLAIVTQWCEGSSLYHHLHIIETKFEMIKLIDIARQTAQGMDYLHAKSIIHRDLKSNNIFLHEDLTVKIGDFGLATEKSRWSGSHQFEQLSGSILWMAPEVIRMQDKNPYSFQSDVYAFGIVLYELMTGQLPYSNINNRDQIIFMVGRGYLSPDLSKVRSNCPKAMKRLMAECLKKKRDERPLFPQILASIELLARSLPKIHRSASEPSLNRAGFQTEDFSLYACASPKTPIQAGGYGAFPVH

SMILES | Kd (RET) | Kd (BRAF^V600E) | Kd (FLT3^R834Q) | Kd (KIT^A829P) | Kd (KIT^D816H) | Kd (KIT^V559D,V654A) | Kd (RET^V804L) | Kd (FGFRs) | IC50 (FGFR2) | IC50 (VEGFR3) | Inhibition of VEGFR2 activity, potency relative to regorafenib (VEGFR2 [1]) | Share of total exposure (sum of total AUC(0–24)ss) [2, 5] | AUC (% of total) [2, 6] | AUC (% of total) [2, 7] | AUC [2, 9] | C max [2, 9] | Cmax [2, 9] | AUC [2, 10] | AUC [2, 11] | C max [2, 11] | also measured
CNC(=O)c1cc(Oc2ccc(NC(=O)Nc3ccc(Cl)c(C(F)(F)F)c3)c(F)c2)cc[n+]1[O-] [M‐2] | 7.6 nM | 15 nM | 240 nM | 19 nM | 490 nM | 51 nM | 13 nM | 440 to 880 nM | ~200 nM | ~4 nM | higher potency than regorafenib | 78% | 78% | 16% | 104.4 µmol·h/L | 6150 ng/mL | 12300 nM | 52,101 μg × h/L | 15.0 µmol·h/L | 753 ng/mL | Overall total C max for all three compounds [2, 8]: about 7500 μg/L; Sum of the total AUC(0–24)ss of regorafenib, M‐2 and M‐5 [2, 8]: 67,093 μg × h/L; Cmax [2, 11]: 1500 nM; AUC [2, 12]: 7490 µg·h/L; Calculated maximum free drug concentration [2]: 13.4 nmol/L; Share of total exposure (sum of total AUC(0–24)ss) [2, 13]: 16%; Kd (VEGFR2 [3]): 29 nM; IC50 (VEGFR2 [4]): ~4 nM; IC50 (KIT): 13 nM
NC(=O)c1cc(Oc2ccc(NC(=O)Nc3ccc(Cl)c(C(F)(F)F)c3)c(F)c2)cc[n+]1[O-] [M‐5] | 5.8 nM | 11 nM | 270 nM | 19 nM | 460 nM | 42 nM | 15 nM | 790 to 1100 nM | ~1000 nM | ~16 nM | higher potency than regorafenib | 5% | 5% | 2% | 7.0 µmol·h/L | 342 ng/mL | 700 nM | 3391 µg·h/L | 1.6 µmol·h/L | 63 ng/mL | AUC (% of total) ([2]; after M‐5 10 mg/kg/day oral for 5 days, only M‐5 determined): 100%; AUC [2, 14]: 108.9 µmol·h/L; Cmax [2, 14]: 10900 nM; AUC ([2]; analyte in plasma after M‐5 10 mg/kg/day oral for 5 days, AUC(0–24)ss): 52,796 μg × h/L; Cmax [2, 11]: 100 nM; AUC [2, 12]: 772 µg·h/L; Calculated maximum free drug concentration [2]: 0.5 nmol/L; Share of total exposure (sum of total AUC(0–24)ss) [2, 13]: 2%; Kd (VEGFR2 [3]): 31 nM; IC50 (VEGFR2 [4]): ~16 nM; IC50 (KIT): 110 nM
